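Growth conditions: 96-well plates. Treatment: test compound, 48 hours, 5 concentrations. Analysis: linear interpolation between bracketing concentrations; unreached endpoints set to highest concentration. Abbreviation: GI50, concentration required for 50% inhibition of growth.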 Activity calls are given as the source filed them. Rule as the data show it: active = GI50 up to about 1.1 µM and inactive = higher.
Legend:
Assay in all cases: NCI-60 cell line screen, 48 h
RXF 631 = test system: RXF 631
786-0 = test system: 786-0
DMS-114 = test system: DMS-114
LXFL 529 = test system: LXFL 529
K562 = test system: K562
HOP-92 = test system: HOP-92
SNB-75 = test system: SNB-75
CAKI-1 = test system: CAKI-1
IGROV-1 = test system: IGROV-1
SK-OV-3 = test system: SK-OV-3
UO-31 = test system: UO-31
HOP-62 = test system: HOP-62
NCI-H522 = test system: NCI-H522
SF-268 = test system: SF-268
NCI-H23 = test system: NCI-H23
SNB-78 = test system: SNB-78
DLD-1 = test system: DLD-1
OVCAR-4 = test system: OVCAR-4
DMS-273 = test system: DMS-273
ACHN = test system: ACHN
Malme-3M = test system: Malme-3M
RPMI-8226 = test system: RPMI-8226
SN12C = test system: SN12C
COLO 205 = test system: COLO 205
SF-539 = test system: SF-539
NCI-H226 = test system: NCI-H226
CCRF-CEM = test system: CCRF-CEM
SK-MEL-28 = test system: SK-MEL-28
SR = test system: SR
M14 = test system: M14
MOLT-4 = test system: MOLT-4
HL-60 = test system: HL-60
UACC-62 = test system: UACC-62
M19-MEL = test system: M19-MEL
HCT-116 = test system: HCT-116
NCI-H460 = test system: NCI-H460
HCC 2998 = test system: HCC 2998
SK-MEL-2 = test system: SK-MEL-2
EKVX = test system: EKVX
UACC-257 = test system: UACC-257
OVCAR-5 = test system: OVCAR-5
KM-20L2 = test system: KM-20L2
U-251 = test system: U-251
A549 = test system: A549
A498 = test system: A498
KM12 = test system: KM12
SNB-19 = test system: SNB-19
SF-295 = test system: SF-295
RXF 393 = test system: RXF 393
SK-MEL-5 = test system: SK-MEL-5
TK-10 = test system: TK-10
HT-29 = test system: HT-29
HCT-15 = test system: HCT-15
SW-620 = test system: SW-620
HOP-18 = test system: HOP-18
OVCAR-8 = test system: OVCAR-8
OVCAR-3 = test system: OVCAR-3
LOX IMVI = test system: LOX IMVI
XF498 = test system: XF498

In the case of `CCCN(CCC)C1CC(n2cc(C)c(=O)[nH]c2=O)OC1CO` (stereo not given), the GI50 (RXF 631) is reported as > 100 µM (inactive), the GI50 (786-0) is reported as > 100 µM (inactive) and the GI50 (DMS-114) is reported as > 100 µM (inactive). The GI50 (LXFL 529) was > 100 µM (inactive), the GI50 (K562) was > 100 µM (inactive) and the GI50 (HOP-92) was > 100 µM (inactive). The GI50 (SNB-75) was > 100 µM (inactive), the GI50 (CAKI-1) was > 100 µM (inactive) and the GI50 (IGROV-1) was > 100 µM (inactive). The GI50 (SK-OV-3) was > 100 µM (inactive), the GI50 (UO-31) was > 100 µM (inactive) and the GI50 (HOP-62) was > 100 µM (inactive). The GI50 (NCI-H522) was > 100 µM (inactive), the GI50 (SF-268) was > 100 µM (inactive) and the GI50 (NCI-H23) was > 100 µM (inactive). For the same compound, the GI50 (SNB-78) was > 100 µM (inactive), the GI50 (DLD-1) was > 100 µM (inactive) and the GI50 (OVCAR-4) was > 100 µM (inactive). For the same compound, the GI50 (DMS-273) was > 100 µM (inactive), the GI50 (ACHN) was > 100 µM (inactive) and the GI50 (Malme-3M) was > 100 µM (inactive). For the same compound, the GI50 (RPMI-8226) was > 100 µM (inactive), the GI50 (SN12C) was > 100 µM (inactive) and the GI50 (COLO 205) was > 100 µM (inactive). For the same compound, the GI50 (SF-539) was > 100 µM (inactive), the GI50 (NCI-H226) was > 100 µM (inactive) and the GI50 (CCRF-CEM) was > 100 µM (inactive). For the same compound, the GI50 (SK-MEL-28) was > 100 µM (inactive), the GI50 (SR) was > 100 µM (inactive) and the GI50 (M14) was > 100 µM (inactive). For the same compound, the GI50 (MOLT-4) was > 100 µM (inactive), the GI50 (HL-60) was > 100 µM (inactive) and the GI50 (UACC-62) was > 100 µM (inactive). For the same compound, the GI50 (M19-MEL) was > 100 µM (inactive), the GI50 (HCT-116) was > 100 µM (inactive) and the GI50 (NCI-H460) was > 100 µM (inactive). The GI50 (HCC 2998) was > 100 µM (inactive) and the GI50 (SK-MEL-2) was > 100 µM (inactive).
For `CS/C(=N\c1nccs1)NC(=O)c1cccc(Cl)c1`, the GI50 (EKVX) was 19 µM (inactive), the GI50 (RXF 631) was 16.8 µM (inactive) and the GI50 (UACC-257) was > 100 µM (inactive). The GI50 (OVCAR-5) was > 100 µM (inactive), the GI50 (786-0) was > 100 µM (inactive) and the GI50 (DMS-114) was > 100 µM (inactive). For the same compound, the GI50 (LXFL 529) was 91 µM (inactive), the GI50 (KM-20L2) was > 100 µM (inactive) and the GI50 (U-251) was 72.1 µM (inactive). The GI50 (K562) was > 100 µM (inactive), the GI50 (HOP-92) was 71.3 µM (inactive) and the GI50 (SNB-75) was 49.5 µM (inactive). For the same compound, the GI50 (CAKI-1) was 50.5 µM (inactive), the GI50 (A549) was > 100 µM (inactive) and the GI50 (IGROV-1) was > 100 µM (inactive). For the same compound, the GI50 (SK-OV-3) was > 100 µM (inactive), the GI50 (UO-31) was 62.4 µM (inactive) and the GI50 (A498) was 81.8 µM (inactive). For the same compound, the GI50 (HOP-62) was > 100 µM (inactive), the GI50 (NCI-H522) was 34.4 µM (inactive) and the GI50 (SF-268) was > 100 µM (inactive). The GI50 (NCI-H23) was > 100 µM (inactive), the GI50 (SNB-78) was > 100 µM (inactive) and the GI50 (KM12) was > 100 µM (inactive). For the same compound, the GI50 (SNB-19) was > 100 µM (inactive), the GI50 (DLD-1) was > 100 µM (inactive) and the GI50 (SF-295) was 77.8 µM (inactive). The GI50 (RXF 393) was > 100 µM (inactive), the GI50 (OVCAR-4) was 68.1 µM (inactive) and the GI50 (DMS-273) was > 100 µM (inactive). For the same compound, the GI50 (SK-MEL-5) was > 100 µM (inactive), the GI50 (ACHN) was > 100 µM (inactive) and the GI50 (Malme-3M) was > 100 µM (inactive). The GI50 (RPMI-8226) was 97.7 µM (inactive), the GI50 (TK-10) was 73.5 µM (inactive) and the GI50 (SN12C) was 79.4 µM (inactive). For the same compound, the GI50 (HT-29) was > 100 µM (inactive), the GI50 (COLO 205) was 46.1 µM (inactive) and the GI50 (HCT-15) was 24.9 µM. The GI50 (SF-539) was > 100 µM (inactive), the GI50 (SW-620) was > 100 µM (inactive) and the GI50 (NCI-H226) was > 100 µM (inactive). For the same compound, the GI50 (CCRF-CEM) was 72.6 µM (inactive), the GI50 (HOP-18) was > 100 µM (inactive) and the GI50 (OVCAR-8) was > 100 µM (inactive). For the same compound, the GI50 (SK-MEL-28) was > 100 µM (inactive), the GI50 (SR) was 24.6 µM (inactive) and the GI50 (M14) was > 100 µM (inactive). For the same compound, the GI50 (MOLT-4) was 31 µM (inactive), the GI50 (HL-60) was 56.8 µM (inactive) and the GI50 (UACC-62) was > 100 µM (inactive). The GI50 (M19-MEL) was 85.9 µM (inactive), the GI50 (OVCAR-3) was 75.2 µM (inactive) and the GI50 (HCT-116) was > 100 µM (inactive). The GI50 (NCI-H460) was > 100 µM (inactive), the GI50 (HCC 2998) was > 100 µM (inactive) and the GI50 (LOX IMVI) was 83.6 µM (inactive). For the same compound, the GI50 (SK-MEL-2) was > 100 µM (inactive).
With `O/N=C(\c1nc2ccc(Cl)cc2nc1O)C(O)c1ccc(Cl)cc1Cl` (stereo not given) the GI50 (RXF 631) was > 100 µM (inactive), the GI50 (UACC-257) was > 100 µM (inactive) and the GI50 (OVCAR-5) was > 100 µM (inactive). For the same compound, the GI50 (786-0) was > 100 µM (inactive), the GI50 (DMS-114) was > 100 µM (inactive) and the GI50 (LXFL 529) was > 100 µM (inactive). The GI50 (KM-20L2) was > 100 µM (inactive), the GI50 (U-251) was > 100 µM (inactive) and the GI50 (K562) was > 100 µM (inactive). The GI50 (HOP-92) was > 100 µM (inactive), the GI50 (SNB-75) was > 100 µM (inactive) and the GI50 (CAKI-1) was > 100 µM (inactive). For the same compound, the GI50 (A549) was > 100 µM (inactive), the GI50 (IGROV-1) was > 100 µM (inactive) and the GI50 (SK-OV-3) was > 100 µM (inactive). For the same compound, the GI50 (UO-31) was > 100 µM (inactive), the GI50 (HOP-62) was > 100 µM (inactive) and the GI50 (NCI-H522) was > 100 µM (inactive). The GI50 (SF-268) was > 100 µM (inactive), the GI50 (NCI-H23) was > 100 µM (inactive) and the GI50 (SNB-78) was > 100 µM (inactive). The GI50 (KM12) was > 100 µM (inactive), the GI50 (SNB-19) was > 100 µM (inactive) and the GI50 (DLD-1) was > 100 µM (inactive). For the same compound, the GI50 (SF-295) was > 100 µM (inactive), the GI50 (RXF 393) was > 100 µM (inactive) and the GI50 (OVCAR-4) was > 100 µM (inactive). For the same compound, the GI50 (DMS-273) was > 100 µM (inactive), the GI50 (SK-MEL-5) was > 100 µM (inactive) and the GI50 (ACHN) was > 100 µM (inactive). For the same compound, the GI50 (Malme-3M) was > 100 µM (inactive), the GI50 (RPMI-8226) was > 100 µM (inactive) and the GI50 (SN12C) was > 100 µM (inactive). For the same compound, the GI50 (HT-29) was > 100 µM (inactive), the GI50 (COLO 205) was > 100 µM (inactive) and the GI50 (HCT-15) was over 100 µM. For the same compound, the GI50 (SF-539) was > 100 µM (inactive), the GI50 (SW-620) was > 100 µM (inactive) and the GI50 (NCI-H226) was > 100 µM (inactive). The GI50 (CCRF-CEM) was > 100 µM (inactive), the GI50 (OVCAR-8) was > 100 µM (inactive) and the GI50 (SK-MEL-28) was > 100 µM (inactive). For the same compound, the GI50 (SR) was > 100 µM (inactive), the GI50 (M14) was > 100 µM (inactive) and the GI50 (MOLT-4) was > 100 µM (inactive). For the same compound, the GI50 (HL-60) was > 100 µM (inactive), the GI50 (UACC-62) was > 100 µM (inactive) and the GI50 (M19-MEL) was > 100 µM (inactive). For the same compound, the GI50 (OVCAR-3) was > 100 µM (inactive), the GI50 (HCT-116) was > 100 µM (inactive) and the GI50 (NCI-H460) was > 100 µM (inactive). The GI50 (HCC 2998) was > 100 µM (inactive), the GI50 (LOX IMVI) was > 100 µM (inactive) and the GI50 (XF498) was > 100 µM (inactive).

Source: ChEMBL document CHEMBL1201862, “PubChem BioAssay data set” (2004)
